Legend:
[1] = system: mouse embryonic fibroblasts (MEFs); assay: Ceramide-induced (C16:0 CER, C2-ceramide) mitochondrial fragmentation; format: cell-based
Description: (§1) 3T3-L1 cells were maintained in DMEM with 10% FBS and 1% penicillin-streptomycin until induced to differentiate. 3T3-L1 pre-adipocytes were differentiated as described in (M. P. Valley, et al., Anal. Biochem. 505: 43-50, 2016, the disclosure of which is incorporated herein by reference) with slight modifications. Briefly, pre-adipocytes were grown to confluence. After 2 d, cells were induced with maintenance media containing 500 μM IBMX (15879, Sigma-Aldrich, St. Louis, Mo.), 1 μM dexamethasone (D4902, Sigma-Aldrich), 5 μg/mL bovine insulin (10516, Sigma-Aldrich), and 5 μM troglitazone (50-115-0786, ApexBio). Media was changed every 2-3 d for 7 d. On day 7 post-induction, media was changed to maintenance media+5 μg/mL bovine insulin. On day 9 post-induction, media was changed to maintenance media. Mature adipocytes were used 12-14 d post-induction for all experiments. LSL-KrasG12D mouse embryonic fibroblasts (MEFs) with and without Cre-mediated deletion of the STOP cassette were obtained from David Tuveson (Cold Spring Harbor Laboratory, Cold Spring Harbor N.Y., USA) in 2000. p53^flox/flox MEFs were derived in house (2015) from C57BL/6 mice using standard techniques and immortalized by transient expression of Cre recombinase and deletion of p53. MEFs were cultured and maintained in DMEM with 10% FBS and 1% penicillin-streptomycin. A549 cells were cultured in DMEM with 10% FBS, 1% penicillin-streptomycin and 1% sodium pyruvate. Stock solution of palmitic acid (ACROS Organics, cat # AC129702500) was prepared at 100 mM in ethanol. Palmitate (250 μM) was conjugated to 1% (w/v) fatty-acid free bovine serum albumin (Sigma, A8806) in DMEM at 37° C. for 20 min. For all immunofluorescence assays, 8,000 MEFs were seeded into 8-chamber slides (Cellvis, cat # C8-1.5H-N) 12-16 h before treatment. Cells were pre-treated with sphingolipid-like compound 893 (5 μM in water), myriocin (10 μM in methanol), fumonisin-B1 (30 μM in DMSO), or celastrol (500 nM in DMSO) for 3 h followed by a 3 h treatment with BSA-conjugated palmitate mixture or BSA alone. Where cells were treated with C2-ceramide (50 μM in DMSO) or C16:0 ceramide (100 μM in ethanol) for 3 h, cells were pre-treated with sphingolipid-like compound 893 for 1-3 h as indicated, mdivi-1 (50 μM in DMSO) for 1 h or 24 h, M1 (5 μM in DMSO) for 24 h, mdivi-1 and M1 together for 24 h, leflunomide (50 μM in methanol) for 1 h or 24 h, or with P110 (1 μM in water) for 1 h or 12 h. LSL or KRAS^G12D MEFs were treated with sphingolipid-like compound 893 (5 μM) for 6 h prior to fixation.
MEFs were washed twice with PBS and fixed with 4% paraformaldehyde for 10 min at RT. Cells were permeabilized with 0.3% Triton X-100 in blocking buffer containing 10% fetal bovine serum for 20 min at 37° C. followed by overnight incubation with mouse anti-citrate synthase (sc-390693, Santa Cruz Biotechnology; dilution, 1:200) or rabbit-anti-DRP1 at 1:100 (#8570, Cell Signaling Technology) at 4° C. Cells were then washed twice with PBS and incubated with AlexaFluor 488 goat anti-mouse (A28175, Invitrogen) or AlexaFluor 594 donkey anti-rabbit (A32754, Invitrogen) secondary antibodies at RT followed by 5 min incubation with 1 μg/ml DAPI and 2 washes in PBS. For NADH autofluorescence studies, mice were gavaged with vehicle or 120 mg/kg sphingolipid-like compound 893 at ZT8.5 (4-10.5 h before sacrifice between ZT12.5 and ZT18). Post sacrifice, livers were excised, washed 3× with PBS, placed in DMEM supplemented with 10% FBS and 1% penicillin-streptomycin, and immediately imaged. NADH/NADPH autofluorescence was detected with 740 nm excitation and 450±50 nm detectors using a Mai Tai two-photon laser. Fluorescence microscopy was performed on a Zeiss LSM 780 confocal using a 63× oil objective with a […] numerical aperture (NA) or using a Nikon TE2000-S inverted epifluorescence microscope with a 100× oil objective (1.3 NA) and a Photometrics CoolSNAP ES2 monochrome CCD camera. […]

[2] = system: A549 lung cancer cells; assay: KRAS-mediated mitochondrial fission in A549 cells; format: cell-based, human; settings: A549, oncogenic KRAS; 893 5 μM 1 h, leflunomide 50 μM 24 h
Description: as §1, with “Where cells were treated with C2-ceramide (50 μM in DMSO) or C16:0 ceramide (100 μM in ethanol) for 3 h, cells were pre-treated with sphingolipid-like compound 893 for 1-3 h as indicated, mdivi-1 (50 μM in DMSO) for 1 h or 24 h, M1 (5 μM in DMSO) for 24 h, mdivi-1 and M1 together for 24 h, leflunomide (50 μM in methanol) for 1 h or 24 h, or with P110 (1 μM in water) for 1 h or 12 h. LSL or KRAS^G12D MEFs were treated with sphingolipid-like compound 893 (5 μM) for 6 h prior to fixation.” left out
MEFs were washed twice with PBS and fixed with 4% paraformaldehyde for 10 min at RT. […] NADH/NADPH autofluorescence was detected with 740 nm excitation and 450±50 nm detectors using a Mai Tai two-photon laser. Fluorescence microscopy was performed on a Zeiss LSM 780 confocal using a 63× oil objective with a […] numerical aperture (NA) or using a Nikon TE2000-S inverted epifluorescence microscope with a 100× oil objective (1.3 NA) and a Photometrics CoolSNAP ES2 monochrome CCD camera. […]

[3] = mouse, in vivo; cited from earlier work

SMILES: Cc1oncc1C(=O)Nc1ccc(C(F)(F)F)cc1 [leflunomide]
- Protection from ceramide-induced mitochondrial fragmentation ([1]; MEFs, C16:0 CER 100 μM or C2-ceramide 50 μM 3 h, 893 5 μM, mdivi-1 50 μM, M1 5 μM, leflunomide 50 μM, P110 1 μM): blocked C16:0 ceramide-induced mitochondrial fragmentation after a 24 h, but not a 1 h, pre-incubation
- Potency relative to compound 893 (less potent) ([1]; blocking ceramide-induced mitochondrial fragmentation in vitro): 10 fold
- Reversal of mitochondrial fragmentation / tubularity in A549 cells [2]: did not reverse mitochondrial fragmentation in A549 lung cancer cells
- Food intake and body weight in obese mice [3]: failed to reduce food intake or body weight in obese mice
